Laboratory results from ChEMBL document CHEMBL1201862, “PubChem BioAssay data set” (2004).
Calls of active or inactive are those of the source.

Key:
Melanocortin receptor 4 = Melanocortin receptor 4 (Homo sapiens, UniProt P32245); format: functional, cell-based;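 also: Cell-based assay with luminescence read-out, confirmatory dose-response testing for agonist activity of biased ligands at MC4R; human U2OS cells with tagged receptor and beta-arrestin; potency of agonists that increase receptor coupling to beta-arrestin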
Melanocortin receptor 4, sequence (P32245 whole entry): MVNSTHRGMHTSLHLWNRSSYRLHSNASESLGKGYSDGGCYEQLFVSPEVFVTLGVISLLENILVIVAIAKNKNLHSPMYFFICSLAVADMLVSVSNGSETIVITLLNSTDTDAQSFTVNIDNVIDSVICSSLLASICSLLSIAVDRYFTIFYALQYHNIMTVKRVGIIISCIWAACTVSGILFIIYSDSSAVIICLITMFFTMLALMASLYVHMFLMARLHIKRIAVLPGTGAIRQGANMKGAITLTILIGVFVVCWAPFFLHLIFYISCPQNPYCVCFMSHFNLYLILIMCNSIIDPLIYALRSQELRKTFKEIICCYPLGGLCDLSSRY

[1] = target: T1, Calpain-2 catalytic subunit (Sus scrofa, UniProt P43367); assay: pig calpain II inhibitor potency, dose response, biochemical, fluorogenic peptide substrate (AID 1420); format: functional
T1 sequence (P43367 whole entry): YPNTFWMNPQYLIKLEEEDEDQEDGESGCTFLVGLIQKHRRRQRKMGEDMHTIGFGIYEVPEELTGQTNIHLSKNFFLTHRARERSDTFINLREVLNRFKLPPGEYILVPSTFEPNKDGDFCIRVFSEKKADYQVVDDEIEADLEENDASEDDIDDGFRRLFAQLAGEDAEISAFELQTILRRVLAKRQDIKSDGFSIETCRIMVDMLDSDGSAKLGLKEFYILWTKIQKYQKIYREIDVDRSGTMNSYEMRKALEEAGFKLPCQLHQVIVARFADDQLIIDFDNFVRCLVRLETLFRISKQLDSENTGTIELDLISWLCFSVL

[2] = target: T2, Sentrin-specific protease 8 (Homo sapiens, UniProt Q96LD8); format: functional
T2 sequence (Q96LD8 whole entry): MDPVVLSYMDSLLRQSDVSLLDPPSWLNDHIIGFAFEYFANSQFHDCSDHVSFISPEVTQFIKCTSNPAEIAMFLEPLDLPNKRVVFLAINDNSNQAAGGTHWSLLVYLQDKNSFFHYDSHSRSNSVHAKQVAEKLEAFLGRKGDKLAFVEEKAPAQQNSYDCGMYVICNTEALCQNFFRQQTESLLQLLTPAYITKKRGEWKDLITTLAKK

[3] = target: T2, Sentrin-specific protease 8; format: functional; remark: listed apart in the source
Caspase-3 = target: T3, Caspase-3 (Homo sapiens, UniProt P42574); assay: Dose-response confirmation of uHTS inhibitor hits of Sentrin-Specific Protease 8 in a Caspase-3 Fluorescence assay.; format: functional
T3 sequence (P42574 whole entry): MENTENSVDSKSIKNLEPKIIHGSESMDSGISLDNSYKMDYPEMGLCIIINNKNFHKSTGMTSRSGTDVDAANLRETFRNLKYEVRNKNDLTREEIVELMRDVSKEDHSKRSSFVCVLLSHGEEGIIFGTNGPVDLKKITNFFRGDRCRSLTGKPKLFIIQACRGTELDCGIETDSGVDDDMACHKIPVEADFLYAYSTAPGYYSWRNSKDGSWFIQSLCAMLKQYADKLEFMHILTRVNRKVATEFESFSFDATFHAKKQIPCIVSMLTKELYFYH

Orexin receptor type 2 [4] = target: T4, Orexin receptor type 2 (Homo sapiens, UniProt O43614); assay: Counterscreen assay for antagonists of the orexin 1 receptor (OX1R; HCRTR1): Homogeneous Time Resolved Fluorescence (HTRF)-based cell-based dose response assay for antagonists of the orexin 2 receptor (OX2R; HCRTR2), run by assay provider.; format: functional
T4 sequence (O43614 whole entry): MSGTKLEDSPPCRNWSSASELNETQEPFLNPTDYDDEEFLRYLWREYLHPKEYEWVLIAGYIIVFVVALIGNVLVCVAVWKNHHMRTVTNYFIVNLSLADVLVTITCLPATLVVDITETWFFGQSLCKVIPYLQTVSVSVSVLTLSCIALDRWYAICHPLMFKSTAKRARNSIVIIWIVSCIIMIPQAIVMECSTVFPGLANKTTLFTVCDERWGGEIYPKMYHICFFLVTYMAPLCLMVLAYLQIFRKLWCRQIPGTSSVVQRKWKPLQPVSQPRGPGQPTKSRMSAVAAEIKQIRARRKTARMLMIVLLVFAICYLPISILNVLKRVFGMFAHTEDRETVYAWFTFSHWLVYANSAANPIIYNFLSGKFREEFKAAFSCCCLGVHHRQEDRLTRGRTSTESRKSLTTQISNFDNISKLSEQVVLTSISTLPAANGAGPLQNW

[5] = (§1) Counterscreen for antagonists of the orexin 1 receptor (OX1R; HCRTR1): Fluorescence-based cell-based high throughput dose response assay to identify antagonists of the parental CHO cell line. [Related pubchem assays (depositor defined):AID434989, AID435008, AID463079, AID485270, AID492963, AID492964, AID492965, AID493232, AID504699, AID504701]; format: functional
[6] = target: T5, Orexin/Hypocretin receptor type 1 (Homo sapiens, UniProt O43613); assay: (§2) Fluorescence-based cell-based high throughput dose response assay for antagonists of the orexin 1 receptor (OX1R; HCRTR1). [Related pubchem assays (depositor defined):AID434989, AID435008, AID463079, AID485270, AID492963, AID492964, AID492965, AID493232, AID504717, AID504718]; format: functional
T5 sequence (O43613 whole entry): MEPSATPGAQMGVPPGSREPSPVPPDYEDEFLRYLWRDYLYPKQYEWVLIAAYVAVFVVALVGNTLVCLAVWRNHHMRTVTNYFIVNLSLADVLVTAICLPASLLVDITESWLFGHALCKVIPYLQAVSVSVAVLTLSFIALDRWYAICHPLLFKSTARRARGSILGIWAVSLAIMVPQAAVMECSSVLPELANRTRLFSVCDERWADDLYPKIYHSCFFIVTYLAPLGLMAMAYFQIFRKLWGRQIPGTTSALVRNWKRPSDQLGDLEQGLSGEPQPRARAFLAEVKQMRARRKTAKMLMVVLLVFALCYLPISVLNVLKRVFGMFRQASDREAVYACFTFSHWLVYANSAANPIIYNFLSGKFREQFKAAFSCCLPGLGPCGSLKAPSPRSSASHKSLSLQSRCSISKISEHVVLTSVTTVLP

Orexin receptor type 2 [7] = target: T4, Orexin receptor type 2; assay: Counterscreen assay for antagonists of the orexin 1 receptor (OX1R; HCRTR1): Fluorescence-based cell-based dose response assay for antagonists of the orexin 2 receptor (OX2R; HCRTR2), run by assay provider.; format: functional
[8] = target: T5, Orexin/Hypocretin receptor type 1; assay: as §2, with “Homogeneous Time Resolved Fluorescence (HTRF)-based” for “Fluorescence-based”; format: functional
CHO-K1 = assay: as §1, with “Homogeneous time resolved fluorescence (HTRF)-based” for “Fluorescence-based”, “cell-based” for “cell-based high throughput”, “CHO-K1” for “CHO”; format: functional; details: Cricetulus griseus
[9] = target: T6, Heat shock factor protein 1 (Mus musculus, UniProt P38532); assay: HSF1 potentiators in luciferase reporter cells, confirmation, cell-based, NIH3T3, luminescence, dose retest (AID 435004); format: functional;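 also: stress induced by proteasome inhibitor MG132 added 30 min after compound; luciferase reporter driven by HSF1 response element in NIH3T3 cells; actives raise luminescence as potentiators of the MG132 stress response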
T6 sequence (P38532 whole entry): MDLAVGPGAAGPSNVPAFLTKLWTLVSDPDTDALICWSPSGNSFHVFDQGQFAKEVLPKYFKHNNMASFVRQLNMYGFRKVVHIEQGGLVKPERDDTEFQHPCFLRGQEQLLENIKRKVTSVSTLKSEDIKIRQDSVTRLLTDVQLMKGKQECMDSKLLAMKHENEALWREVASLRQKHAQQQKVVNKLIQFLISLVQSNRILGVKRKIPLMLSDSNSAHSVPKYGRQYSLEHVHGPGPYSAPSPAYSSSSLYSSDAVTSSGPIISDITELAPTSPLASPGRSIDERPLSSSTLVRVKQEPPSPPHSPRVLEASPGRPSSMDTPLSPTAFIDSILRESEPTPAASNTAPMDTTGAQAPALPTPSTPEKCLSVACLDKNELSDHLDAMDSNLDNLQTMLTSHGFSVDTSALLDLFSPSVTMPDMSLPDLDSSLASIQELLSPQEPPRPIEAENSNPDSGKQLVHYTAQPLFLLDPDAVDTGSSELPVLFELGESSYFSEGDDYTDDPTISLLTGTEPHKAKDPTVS

[10] = target: Hepatocyte nuclear factor 4-alpha (Homo sapiens, UniProt P41235); format: functional, cell-based;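 also: biochemical luminescence-based dose-response counterscreen measuring inhibition of HNF4 dimerization, run alongside a screen for blockers of ABHD5–perilipin-5 interaction; split luciferase complementation of HNF4 fusion proteins in cell lysate measuring dimerization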
Hepatocyte nuclear factor 4-alpha, sequence (P41235 whole entry, the tested form may be a part): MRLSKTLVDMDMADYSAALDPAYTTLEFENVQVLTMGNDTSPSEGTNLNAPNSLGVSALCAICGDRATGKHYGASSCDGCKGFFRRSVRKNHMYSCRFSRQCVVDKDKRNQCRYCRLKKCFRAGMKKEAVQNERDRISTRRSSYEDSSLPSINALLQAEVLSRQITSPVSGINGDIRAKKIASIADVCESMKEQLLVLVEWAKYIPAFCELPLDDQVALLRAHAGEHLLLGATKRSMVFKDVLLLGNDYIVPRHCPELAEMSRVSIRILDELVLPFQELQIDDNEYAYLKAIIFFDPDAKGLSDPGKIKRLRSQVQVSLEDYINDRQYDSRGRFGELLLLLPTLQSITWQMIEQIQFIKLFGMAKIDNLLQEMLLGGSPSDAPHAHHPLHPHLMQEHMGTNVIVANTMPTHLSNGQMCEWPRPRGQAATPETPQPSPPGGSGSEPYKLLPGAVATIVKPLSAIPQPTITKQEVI

SUMO-activating enzyme [11] = target: T7, SUMO-activating enzyme (Homo sapiens, UniProt Q9UBT2); assay: inhibitors of in vitro SUMOylation cascade, primary screen, biochemical, HTRF, uHTS (AID 2006); format: protein-complex assay
T7 sequence (Q9UBE0 whole entry): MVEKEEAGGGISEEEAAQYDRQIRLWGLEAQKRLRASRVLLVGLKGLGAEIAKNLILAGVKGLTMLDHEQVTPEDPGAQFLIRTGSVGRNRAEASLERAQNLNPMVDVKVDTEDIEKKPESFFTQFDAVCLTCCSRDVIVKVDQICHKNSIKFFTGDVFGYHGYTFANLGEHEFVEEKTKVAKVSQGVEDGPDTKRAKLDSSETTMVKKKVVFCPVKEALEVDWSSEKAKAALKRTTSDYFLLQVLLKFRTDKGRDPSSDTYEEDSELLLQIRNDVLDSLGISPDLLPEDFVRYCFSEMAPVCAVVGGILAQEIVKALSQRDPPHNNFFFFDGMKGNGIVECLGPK
T7 sequence (Q9UBT2 whole entry): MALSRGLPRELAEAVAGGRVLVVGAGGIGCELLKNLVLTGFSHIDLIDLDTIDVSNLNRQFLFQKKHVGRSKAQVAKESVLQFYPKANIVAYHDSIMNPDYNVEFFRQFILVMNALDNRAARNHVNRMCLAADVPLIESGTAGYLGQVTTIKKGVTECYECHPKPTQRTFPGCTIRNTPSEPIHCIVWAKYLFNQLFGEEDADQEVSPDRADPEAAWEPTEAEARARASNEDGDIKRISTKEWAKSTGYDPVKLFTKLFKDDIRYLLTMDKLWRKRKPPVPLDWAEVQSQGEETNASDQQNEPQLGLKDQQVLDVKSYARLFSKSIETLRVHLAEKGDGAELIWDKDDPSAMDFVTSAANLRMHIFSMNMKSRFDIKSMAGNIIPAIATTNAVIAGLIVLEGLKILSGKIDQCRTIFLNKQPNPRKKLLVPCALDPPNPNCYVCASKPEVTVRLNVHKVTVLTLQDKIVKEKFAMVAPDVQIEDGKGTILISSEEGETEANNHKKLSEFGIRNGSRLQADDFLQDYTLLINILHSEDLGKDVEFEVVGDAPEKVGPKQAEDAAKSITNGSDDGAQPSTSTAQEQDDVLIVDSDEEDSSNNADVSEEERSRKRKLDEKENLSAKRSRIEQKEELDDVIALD

[12] = target: Long-chain-fatty-acid--AMP ligase FadD28 (Mycobacterium tuberculosis, UniProt P9WQ59); assay: Fluorescence polarization aasay to screen for inhibitors that compete for the binding of FadD28 to a bisubstrate Measured in Biochemical System Using Plate Reader - 2147-01_Inhibitor_Dose_CherryPick_Activity.; format: functional, Mycobacterium tuberculosis H37Rv
Long-chain-fatty-acid--AMP ligase FadD28, sequence (P9WQ59 whole entry): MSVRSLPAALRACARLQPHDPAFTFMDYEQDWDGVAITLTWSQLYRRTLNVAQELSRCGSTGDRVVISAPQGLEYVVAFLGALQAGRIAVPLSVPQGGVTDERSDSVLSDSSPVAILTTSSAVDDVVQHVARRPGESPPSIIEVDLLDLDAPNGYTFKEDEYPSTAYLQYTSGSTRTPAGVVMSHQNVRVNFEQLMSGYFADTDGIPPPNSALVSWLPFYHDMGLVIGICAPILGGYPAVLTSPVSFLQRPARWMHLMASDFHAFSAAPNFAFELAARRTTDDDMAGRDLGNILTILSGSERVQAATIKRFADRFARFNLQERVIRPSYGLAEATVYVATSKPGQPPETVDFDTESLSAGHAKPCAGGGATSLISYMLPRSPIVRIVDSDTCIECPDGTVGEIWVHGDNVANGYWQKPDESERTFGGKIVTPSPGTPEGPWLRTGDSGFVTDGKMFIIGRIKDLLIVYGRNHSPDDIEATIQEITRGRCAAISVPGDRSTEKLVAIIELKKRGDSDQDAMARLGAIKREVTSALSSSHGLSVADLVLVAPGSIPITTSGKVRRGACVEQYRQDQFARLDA

Genome polyprotein = Genome polyprotein (dengue virus type 2, UniProt P29990); assay: Dengue-2 NS5 methyltransferase inhibitors, primary screen, biochemical, confirmation dose response (AID 588689); format: functional
SUMO-activating enzyme [13] = target: T7, SUMO-activating enzyme; assay: SUMOylation inhibitor hit validation, confirmation, SUMOylation inhibitor project, biochemical, AlphaScreen (AID 2018); format: functional
[14] = target: T8, Mitochondrial peptide methionine sulfoxide reductase (Bos taurus, UniProt P54149); assay: Absorbance-based biochemical high throughput dose response assay for activators of Methionine sulfoxide reductase A (MsrA).; format: functional
T8 sequence (P54149 whole entry): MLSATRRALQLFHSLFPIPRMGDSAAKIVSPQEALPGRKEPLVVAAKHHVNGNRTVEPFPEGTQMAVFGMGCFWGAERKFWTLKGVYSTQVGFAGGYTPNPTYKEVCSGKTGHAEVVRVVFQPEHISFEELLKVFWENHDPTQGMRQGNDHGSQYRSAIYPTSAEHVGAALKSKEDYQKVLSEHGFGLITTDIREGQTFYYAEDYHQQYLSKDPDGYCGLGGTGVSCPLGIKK

[15] = target: T9, Polyadenylate-binding protein 1 (Homo sapiens, UniProt P11940); assay: PABP1 MLLE–PAM2 interaction inhibitors, dose response, miRNA deadenylation inhibitor project, biochemical, fluorescence polarization, Cy5-PAM2 peptide, secondary (AID 602260); format: functional; details: read-out: IC50_Mean
T9 sequence (P11940 whole entry): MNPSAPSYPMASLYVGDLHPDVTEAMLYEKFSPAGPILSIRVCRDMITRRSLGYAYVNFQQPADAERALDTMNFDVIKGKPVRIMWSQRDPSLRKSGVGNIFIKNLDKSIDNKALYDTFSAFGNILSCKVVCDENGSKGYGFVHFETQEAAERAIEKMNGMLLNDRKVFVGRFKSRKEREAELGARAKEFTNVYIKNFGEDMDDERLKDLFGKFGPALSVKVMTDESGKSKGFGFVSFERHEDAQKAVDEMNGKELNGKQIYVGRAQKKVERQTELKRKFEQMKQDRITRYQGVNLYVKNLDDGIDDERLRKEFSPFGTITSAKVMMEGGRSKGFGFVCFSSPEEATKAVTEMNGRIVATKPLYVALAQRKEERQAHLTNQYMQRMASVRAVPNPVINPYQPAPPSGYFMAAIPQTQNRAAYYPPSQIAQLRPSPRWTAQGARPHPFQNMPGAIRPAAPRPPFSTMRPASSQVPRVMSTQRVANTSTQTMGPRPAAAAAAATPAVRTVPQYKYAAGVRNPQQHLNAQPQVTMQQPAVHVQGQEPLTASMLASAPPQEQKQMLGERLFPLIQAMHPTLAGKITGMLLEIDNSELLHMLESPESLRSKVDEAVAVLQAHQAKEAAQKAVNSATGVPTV

[16] = target: T9, Polyadenylate-binding protein 1; assay: PABP1 MLLE–PAM2 binding inhibitor potency, dose response, biochemical, fluorescence polarization, FITC-PAM2 peptide (AID 602259); format: functional; details: read-out: IC50_Mean
[17] = target: Fructose-bisphosphate aldolase (Mycobacterium tuberculosis, UniProt P9WQA3); assay: Fluorescence-based biochemical high throughput dose response assay for inhibitors of the fructose-bisphosphate aldolase (FBA) of M. tuberculosis.; format: functional
Fructose-bisphosphate aldolase, sequence (P9WQA3 whole entry): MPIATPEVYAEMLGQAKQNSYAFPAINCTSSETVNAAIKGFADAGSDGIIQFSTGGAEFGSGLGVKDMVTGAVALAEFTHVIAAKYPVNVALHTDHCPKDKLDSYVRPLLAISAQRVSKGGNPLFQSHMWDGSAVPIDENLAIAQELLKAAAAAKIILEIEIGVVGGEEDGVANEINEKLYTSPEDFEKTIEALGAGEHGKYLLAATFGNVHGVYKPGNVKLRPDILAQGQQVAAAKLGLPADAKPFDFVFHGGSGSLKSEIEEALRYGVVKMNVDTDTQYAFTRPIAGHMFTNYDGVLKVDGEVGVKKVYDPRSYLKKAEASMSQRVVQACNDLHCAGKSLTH

[18] = target: Ras and Rab interactor 1/Tyrosine-protein kinase ABL1 (Homo sapiens, UniProt P00519+Q13671); format: functional;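 also: biochemical TR-FRET dose-response test measuring inhibition of binding between Rin1 and Abl proteins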
Steroidogenic factor 1 = Steroidogenic factor 1 (Homo sapiens, UniProt Q13285); assay: Counterscreen for inverse agonists of the liver receptor homolog-1 (LRH-1; NR5A2): Luminescence-based cell-based high throughput dose response assay to identify inverse agonists of the Steroidogenic Factor 1 Nuclear Receptor (SF1; NR5A1).; format: functional
Steroidogenic factor 1, sequence (Q13285 whole entry): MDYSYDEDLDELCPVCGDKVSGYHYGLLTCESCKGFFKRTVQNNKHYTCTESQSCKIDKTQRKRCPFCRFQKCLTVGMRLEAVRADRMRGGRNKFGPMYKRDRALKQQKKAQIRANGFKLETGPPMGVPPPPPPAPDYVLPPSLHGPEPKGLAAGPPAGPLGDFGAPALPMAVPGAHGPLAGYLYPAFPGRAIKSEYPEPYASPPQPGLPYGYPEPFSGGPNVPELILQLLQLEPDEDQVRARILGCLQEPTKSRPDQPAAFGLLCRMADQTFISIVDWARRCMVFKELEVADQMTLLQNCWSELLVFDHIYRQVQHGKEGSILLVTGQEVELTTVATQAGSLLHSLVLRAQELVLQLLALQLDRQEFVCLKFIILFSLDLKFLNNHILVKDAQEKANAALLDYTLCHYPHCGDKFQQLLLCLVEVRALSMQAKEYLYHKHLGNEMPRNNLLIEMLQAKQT

[19] = StAR promoter reporter inhibition counter-screen, dose response, counter-screen for LRH-1 inverse agonist project, cell-based, luminescence, luciferase reporter (AID 651969); format: functional
[20] = target: Nuclear receptor subfamily 5 group A member 2 (Homo sapiens, UniProt O00482); format: functional, cell-based;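 also: HEK293T cells transfected with LRH-1 and a StAR promoter luciferase reporter; potency for inhibitors that lower LRH-1 driven reporter light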
Nuclear receptor subfamily 5 group A member 2, sequence (O00482 whole entry): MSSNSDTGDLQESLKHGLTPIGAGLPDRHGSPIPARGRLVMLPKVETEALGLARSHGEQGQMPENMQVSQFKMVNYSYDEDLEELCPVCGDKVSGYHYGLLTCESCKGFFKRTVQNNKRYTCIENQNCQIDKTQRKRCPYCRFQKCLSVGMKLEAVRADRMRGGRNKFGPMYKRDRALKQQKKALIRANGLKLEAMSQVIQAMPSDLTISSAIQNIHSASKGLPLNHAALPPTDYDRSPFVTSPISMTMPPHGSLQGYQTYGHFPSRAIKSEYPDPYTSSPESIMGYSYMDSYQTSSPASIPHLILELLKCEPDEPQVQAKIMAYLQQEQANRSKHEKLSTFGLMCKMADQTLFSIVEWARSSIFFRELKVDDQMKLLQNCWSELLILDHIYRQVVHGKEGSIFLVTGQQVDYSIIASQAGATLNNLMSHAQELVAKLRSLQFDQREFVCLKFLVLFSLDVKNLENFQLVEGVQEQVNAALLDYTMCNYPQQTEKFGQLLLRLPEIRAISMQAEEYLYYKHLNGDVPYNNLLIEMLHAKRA

## COc1cc(NS(=O)(=O)c2ccc(NC(=S)NC(=O)c3sc4ccccc4c3Cl)cc2)ncn1
Melanocortin receptor 4
  EC50: > 89.2 µM (inactive)
[1]
  IC50: 11.4 µM (not active)

## COc1ccc(N2C(=O)[C@@H]3[C@H](C2=O)[C@H]2c4ccccc4C=CN2[C@@H]3C(C)=O)cc1
[2]
  IC50: 0.543 µM (active)
[3]
  IC50: 1.19 µM (active)
Caspase-3
  IC50: 3.03 µM (active)

## Cc1cc(Br)cc2c1NC(=O)C2(c1c(C)n(C)n(-c2ccccc2)c1=O)c1c(C)n(C)n(-c2ccccc2)c1=O
Orexin receptor type 2 [4]
  IC50: 0.99 µM (active)
[5]
  IC50: > 49.8 µM (inactive)
[6]
  IC50: 6.52 µM (active)
Orexin receptor type 2 [7]
  IC50: > 88.8 µM (inactive)
[8]
  IC50: 1.28 µM (active)
CHO-K1
  IC50: > 66.2 µM (inactive)

## CC(=O)Cc1cc(O)c2ccccc2c1OC(=O)c1ccccc1
[9]
  EC50: > 260 µM (inactive)
[10]
  IC50: 14.6 µM (inactive)

## CCC(C)(C)C1CCc2c(sc(NC(=O)c3ccccc3C(=O)O)c2C#N)C1 (stereo unspecified)
SUMO-activating enzyme [11]
  IC50: 21.4 µM (active)
[12]
  AC50: 37.3 µM (active)
Genome polyprotein
  IC50: 42.6 µM (active)
SUMO-activating enzyme [13]
  IC50: 15.3 µM (active)

## O=c1[nH]c(=S)[nH]cc1Oc1ccc(Cl)cc1Cl
[14]
  EC50: > 104 µM (inactive)
[15]
  IC50: > 66 µM (inactive)
[16]
  IC50: > 66 µM (inactive)

## O=C(Cn1c(=O)n(Cc2ccco2)c(=O)c2c3c(sc21)CCCC3)Nc1ccccc1
[10]
  IC50: 22.2 µM (inactive)

## COc1ccc(C(=O)NCCc2c[nH]c3ccccc23)cc1S(=O)(=O)N1CCOCC1
[12]
  AC50: 82.7 µM (active)

## Cc1nc2c(-c3ccccc3)c(C)nn2c(N)c1-c1ccccc1
Orexin receptor type 2 [4]
  IC50: > 50 µM (inactive)
[5]
  IC50: 49 µM (inactive)
[6]
  IC50: 13.3 µM (inactive)
Orexin receptor type 2 [7]
  IC50: 24.9 µM (inactive)
[8]
  IC50: 5.34 µM (active)
CHO-K1
  IC50: > 66.2 µM (inactive)

## O=C(Cc1ccccc1)c1nc2ccccc2s1
[2]
  IC50: 6.06 µM (active)
[3]
  IC50: 26.7 µM (active)
Caspase-3
  IC50: 25 µM (active)

## COc1ccc2cc3cc(C(=O)N4CCN(C5CCCCC5)CC4)oc3nc2c1
[17]
  IC50: 0.92 µM (active)

## O=C1C(Cl)=C(NCc2ccco2)C(=O)c2ccccc21
[14]
  EC50: > 104 µM (inactive)

## CN(CCc1ccccc1)C(=O)c1ccc(NC(=O)Cc2ccc(NC(=O)C3CCN(C(=O)C4CCCCC4)CC3)cc2)cc1
[18]
  IC50: 11.2 µM (inactive)

## O=C(CN1C(=O)NC2(CCCC2)C1=O)NCCc1ccc(F)cc1
Steroidogenic factor 1
  IC50: 6.2 µM (active)
[19]
  IC50: 35.9 µM (inactive)
[20]
  IC50: 35.9 µM (inactive)

## Cn1c(N)c(C(=O)N/N=C/c2ccccc2)sc1=S
Orexin receptor type 2 [4]
  IC50: > 50 µM (inactive)
[5]
  IC50: > 49.7 µM (inactive)
[6]
  IC50: 2.75 µM (active)
Orexin receptor type 2 [7]
  IC50: > 88.8 µM (inactive)
[8]
  IC50: 1.59 µM (active)
CHO-K1
  IC50: > 66.2 µM (inactive)

## COc1ccc(/C=N/NC(=O)c2ccc(NC(=O)c3cccc([N+](=O)[O-])c3)cc2)c(OC)c1
Steroidogenic factor 1
  IC50: 3.07 µM (active)
[19]
  IC50: 35.9 µM (inactive)
[20]
  IC50: 23.1 µM (inactive)
